Several values for one entry are separate records, joined by “and”; a condition that tells them apart may be missing. Identical values can stand only once.
Conditions: Liquid, Vibrating tube method

CCCCCCCCCC [decane]
Conditions | mass density
313.14 K, 33167 kPa | 739.6 kg/m3
313.14 K, 33192 kPa | 739.6 kg/m3
313.14 K, 33228 kPa | 739.6 kg/m3
313.14 K, 33249 kPa | 739.6 kg/m3
313.14 K, 33282 kPa | 739.6 kg/m3
313.14 K, 33310 kPa | 739.6 kg/m3
313.14 K, 33326 kPa | 739.8 kg/m3
313.14 K, 33356 kPa | 739.6 kg/m3
313.14 K, 33377 kPa | 739.6 kg/m3
313.14 K, 33399 kPa | 739.8 kg/m3
313.14 K, 33423 kPa | 739.6 kg/m3
313.14 K, 33447 kPa | 739.8 kg/m3
313.14 K, 33472 kPa | 739.7 kg/m3
313.14 K, 33490 kPa | 739.8 kg/m3
313.14 K, 33518 kPa | 739.7 kg/m3
313.14 K, 33536 kPa | 739.8 kg/m3
313.14 K, 33561 kPa | 739.7 kg/m3
313.14 K, 33582 kPa | 739.8 kg/m3
313.14 K, 33604 kPa | 739.9 kg/m3
313.14 K, 33629 kPa | 739.9 kg/m3
313.14 K, 33657 kPa | 740 kg/m3
313.14 K, 33682 kPa | 739.9 kg/m3
313.14 K, 33707 kPa | 739.8 kg/m3
313.14 K, 33726 kPa | 739.8 kg/m3
313.14 K, 33748 kPa | 739.9 kg/m3
313.14 K, 33766 kPa | 739.6 kg/m3
313.14 K, 33782 kPa | 739.9 kg/m3
313.14 K, 33804 kPa | 740 kg/m3
313.14 K, 33832 kPa | 740 kg/m3
313.14 K, 33858 kPa | 740 kg/m3
313.14 K, 33880 kPa | 740 kg/m3
313.14 K, 33906 kPa | 740.1 kg/m3
313.14 K, 33924 kPa | 740.1 kg/m3
313.14 K, 33950 kPa | 740 kg/m3
313.14 K, 33978 kPa | 740.2 kg/m3
313.14 K, 33997 kPa | 740.1 kg/m3
313.14 K, 34023 kPa | 740.1 kg/m3
313.14 K, 34043 kPa | 740.1 kg/m3
313.14 K, 34066 kPa | 740.1 kg/m3
313.14 K, 34082 kPa | 740.2 kg/m3
313.14 K, 34105 kPa | 740.2 kg/m3
313.14 K, 34131 kPa | 740.1 kg/m3
313.14 K, 34158 kPa | 740.3 kg/m3
313.14 K, 34181 kPa | 740.1 kg/m3
313.14 K, 34211 kPa | 740.2 kg/m3
313.14 K, 34231 kPa | 740.2 kg/m3
313.14 K, 34264 kPa | 740.2 kg/m3
313.14 K, 34281 kPa | 740.2 kg/m3
313.14 K, 34305 kPa | 740.2 kg/m3
313.14 K, 34333 kPa | 740.3 kg/m3
313.14 K, 34358 kPa | 740.4 kg/m3
313.14 K, 34391 kPa | 740.4 kg/m3
313.14 K, 34414 kPa | 740.4 kg/m3
313.14 K, 34437 kPa | 740.4 kg/m3
313.14 K, 34466 kPa | 740.4 kg/m3
313.14 K, 34503 kPa | 740.5 kg/m3
313.14 K, 34520 kPa | 740.4 kg/m3
313.14 K, 34543 kPa | 740.4 kg/m3
313.14 K, 34560 kPa | 740.5 kg/m3
313.14 K, 34566 kPa | 740.4 kg/m3
313.14 K, 34568 kPa | 740.5 kg/m3
313.14 K, 34571 kPa | 740.4 kg/m3 and 740.5 kg/m3
313.15 K, 1010 kPa | 715.4 kg/m3
313.15 K, 1032 kPa | 715.4 kg/m3
313.15 K, 1055 kPa | 715.5 kg/m3
313.15 K, 1082 kPa | 715.5 kg/m3
313.15 K, 1102 kPa | 715.4 kg/m3
313.15 K, 1122 kPa | 715.5 kg/m3
313.15 K, 1147 kPa | 715.6 kg/m3
313.15 K, 1182 kPa | 715.5 kg/m3
313.15 K, 1217 kPa | 715.7 kg/m3
313.15 K, 1254 kPa | 715.6 kg/m3
313.15 K, 3801 kPa | 717.9 kg/m3
313.15 K, 6798 kPa | 720.3 kg/m3
313.15 K, 6849 kPa | 720.5 kg/m3
313.15 K, 6918 kPa | 720.6 kg/m3
313.15 K, 6929 kPa | 720.5 kg/m3
313.15 K, 7976 kPa | 721.4 kg/m3
313.15 K, 7995 kPa | 721.4 kg/m3
313.15 K, 8013 kPa | 721.4 kg/m3
313.15 K, 8034 kPa | 721.4 kg/m3
313.15 K, 8045 kPa | 721.4 kg/m3
313.15 K, 8059 kPa | 721.4 kg/m3
313.15 K, 8073 kPa | 721.5 kg/m3
313.15 K, 8087 kPa | 721.4 kg/m3
313.15 K, 8102 kPa | 721.4 kg/m3
313.15 K, 8113 kPa | 721.4 kg/m3
313.15 K, 8129 kPa | 721.5 kg/m3
313.15 K, 8649 kPa | 721.9 kg/m3
313.15 K, 8666 kPa | 721.9 kg/m3
313.15 K, 8707 kPa | 721.7 kg/m3
313.15 K, 15697 kPa | 727.3 kg/m3
313.15 K, 15727 kPa | 727.5 kg/m3
313.15 K, 15757 kPa | 727.3 kg/m3
313.15 K, 15781 kPa | 727.5 kg/m3
313.15 K, 15816 kPa | 727.6 kg/m3
313.15 K, 15846 kPa | 727.6 kg/m3
313.15 K, 15873 kPa | 727.6 kg/m3
313.15 K, 17591 kPa | 728.8 kg/m3
313.15 K, 17641 kPa | 728.9 kg/m3
313.15 K, 17664 kPa | 728.8 kg/m3
313.15 K, 17686 kPa | 728.8 kg/m3
313.15 K, 17711 kPa | 728.9 kg/m3
313.15 K, 17734 kPa | 728.9 kg/m3
313.15 K, 20359 kPa | 730.9 kg/m3
313.15 K, 20406 kPa | 730.9 kg/m3
313.15 K, 20562 kPa | 730.8 kg/m3
313.15 K, 20961 kPa | 731.3 kg/m3
313.15 K, 20986 kPa | 731.2 kg/m3
313.15 K, 21097 kPa | 731.3 kg/m3
313.15 K, 21119 kPa | 731.3 kg/m3
313.15 K, 21249 kPa | 731.5 kg/m3
313.15 K, 21278 kPa | 731.5 kg/m3
313.15 K, 21337 kPa | 731.5 kg/m3
313.15 K, 21367 kPa | 731.5 kg/m3
313.15 K, 21711 kPa | 731.8 kg/m3
313.15 K, 21800 kPa | 731.8 kg/m3
313.15 K, 22455 kPa | 732.2 kg/m3
313.15 K, 22492 kPa | 732.4 kg/m3
313.15 K, 22548 kPa | 732.4 kg/m3
313.15 K, 22615 kPa | 732.4 kg/m3
313.15 K, 22970 kPa | 732.6 kg/m3
313.15 K, 22997 kPa | 732.7 kg/m3
313.15 K, 23029 kPa | 732.6 kg/m3
313.15 K, 23052 kPa | 732.6 kg/m3
313.15 K, 23072 kPa | 732.7 kg/m3
313.15 K, 23096 kPa | 732.7 kg/m3
313.15 K, 23131 kPa | 732.8 kg/m3
313.15 K, 23163 kPa | 732.8 kg/m3
313.15 K, 23183 kPa | 732.9 kg/m3
313.15 K, 23218 kPa | 732.9 kg/m3
313.15 K, 23249 kPa | 732.9 kg/m3
313.15 K, 23281 kPa | 733 kg/m3
313.15 K, 23309 kPa | 732.8 kg/m3
313.15 K, 23338 kPa | 733 kg/m3
313.15 K, 23370 kPa | 733 kg/m3
313.15 K, 25526 kPa | 734.6 kg/m3

— the NIST ThermoML archive (doi:10.1021/je800110r)
